The numbers were not newly measured in patent US6780852B2 (priority 1997, dated 2004), which cites them from elsewhere.

For the substance Ferric gluconate, the “transient hypotension and flushing, share of exposed patients” value is given as 1%.
